Data: US12043600B2, “Microbiocidal compounds” (SYNGENTA CROP PROTECTION AG, priority 2018, dated 2024)

Assays:
[1] = test system: Alternaria solani; test: Alternaria solani/Tomato/Leaf Disc (Early Blight); format: in vivo; conditions: foliar, tomato leaf disc, compared to untreated control
How it was run: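 Protective leaf-disc test: compound sprayed onto tomato cv. Baby disks, spore inoculation following after 2 days. Disks kept at 80% rh, 12/12 h light/dark, 23° C. day and 21° C. night; activity read as percent disease control relative to untreated checks 5-7 days post-application.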

[2] = test system: Glomerella lagenarium (Colletotrichum lagenarium); test: Glomerella lagenarium (Colletotrichum lagenarium)/Liquid Culture (Anthracnose); format: cell-based; conditions: Colletotrichum orbiculare, liquid culture, compared to untreated control
[3] = test system: Blumeria graminis f. sp. tritici (Erysiphe graminis f. sp. tritici); test: Blumeria graminis f. sp. tritici/Wheat/Leaf Disc Preventative (Powdery Mildew on Wheat); format: in vivo; conditions: foliar, wheat leaf disc preventative, compared to untreated control
How it was run: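 Preventative leaf-disc test: percent disease control versus untreated leaf segments read 6-8 days post-application. Compound spray applied to wheat cv. Kanzler segments on agar one day before shaking infected plants over them; incubation at 20° C and 60% rh, 24 h darkness then 12 h light/12 h dark cycles.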

[4] = test system: Phaeosphaeria nodorum (Septoria nodorum); test: Phaeosphaeria nodorum (Septoria nodorum)/Wheat/Leaf Disc Preventative (Glume Blotch); format: in vivo; conditions: Parastagonospora nodorum, foliar, wheat leaf disc preventative, compared to untreated control
How it was run: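 Preventative test: compound spray first, then spore inoculation after 2 days on cv. Kanzler wheat leaf segments. Incubation in a climate cabinet at 20 °C and 75% rh under a 12 h light/12 h dark cycle. Activity rated as % control relative to untreated discs at 5–7 days post-application.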

[5] = test system: Monographella nivalis (Microdochium nivale); test: Monographella nivalis (Microdochium nivale)/Liquid Culture (Foot Rot Cereals); format: cell-based; conditions: liquid culture, compared to untreated control
How it was run: (§1)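 Liquid-culture format using potato dextrose broth inoculated directly with cryopreserved conidia, dosed with compound from a DMSO solution.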

[6] = test system: Mycosphaerella arachidis (Cercospora arachidicola); test: Mycosphaerella arachidis (Cercospora arachidicola)/Liquid Culture (Early Leaf Spot); format: cell-based; conditions: liquid culture, compared to untreated control
How it was run: as §1

[7] = test system: Plasmopara viticola; test: whole plant or invertebrate; format: in vivo; conditions: foliar, read-out: control of Plasmopara viticola
[8] = test system: Puccinia recondita f. sp. tritici; test: Puccinia recondita f. sp. tritici/Wheat/Leaf Disc Curative (Brown Rust); format: in vivo; conditions: foliar, wheat leaf disc curative, compared to untreated control
How it was run: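 Formulated compound, diluted in water, is applied to inoculated wheat cv. Kanzler leaf segments on agar one day post-inoculation (pre-incubation dark, 19° C, 75% rh). After 6-8 days at 19° C, 75% rh and 12 h/12 h light, activity is rated as percent disease control relative to untreated segments.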

[9] = test system: Puccinia recondita f. sp. tritici; test: Puccinia recondita f. sp. tritici/Wheat/Leaf Disc Preventative (Brown Rust); format: in vivo; conditions: foliar, 200 ppm, wheat leaf disc preventative, compared to untreated control, read-out: control of Puccinia recondita f. sp. tritici
[10] = test system: Magnaporthe grisea (Pyricularia oryzae); test: whole plant or invertebrate; format: in vivo; conditions: foliar, read-out: control of Magnaporthe grisea
[11] = test system: Pythium ultimum; test: Pythium ultimum/Liquid Culture (Seedling Damping Off); format: cell-based; conditions: Globisporangium ultimum, liquid culture, compared to untreated control
Experimental: Mycelia fragments and oospores of a newly grown liquid culture of the fungus are directly mixed into nutrient broth (PDB potato dextrose broth). After placing a (DMSO) solution of test compound into a microtiter plate (96-well format), the nutrient broth containing the fungal mycelia/spore mixture is added.

[12] = test system: Thanatephorus cucumeris (Rhizoctonia solani); test: Thanatephorus cucumeris (Rhizoctonia solani)/Liquid Culture (Foot Rot, Damping-Off); format: cell-based; conditions: liquid culture, compared to untreated control
Experimental: Mycelia fragments of a newly grown liquid culture of the fungus are directly mixed into nutrient broth (PDB potato dextrose broth). After placing a (DMSO) solution of the test compounds into a microtiter plate (96-well format), the nutrient broth containing the fungal material is added.

[13] = test system: Sclerotinia sclerotiorum; test: Sclerotinia sclerotiorum/Liquid Culture (Cottony Rot); format: cell-based; conditions: liquid culture, compared to untreated control
Experimental: Mycelia fragments of a newly grown liquid culture of the fungus are directly mixed into nutrient broth (PDB potato dextrose broth). After placing a (DMSO) solution of test compound into a microtiter plate (96-well format) the nutrient broth containing the fungal material is added.

[14] = test system: Mycosphaerella graminicola (Septoria tritici); test: Mycosphaerella graminicola (Septoria tritici)/Liquid Culture (Septoria Blotch); format: cell-based; conditions: Zymoseptoria tritici; 20 ppm; liquid culture; compared to untreated control
How it was run: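 Results given as % disease control: test compound in DMSO was placed in wells first, then potato dextrose broth carrying cryostored fungal conidia was added.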

[15] = Photostability assay (Atlas Suntest); format: physicochemical; conditions: Suntest 750 W/m^2, spotted on microscope slides
How it was run: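 Compound (2 μl of 1 g/L methanol stock) spotted on glass slides and irradiated at 750 W/m^2 in a Suntest. Slides were washed with H2O:MeCN:THF 50:40:10 and analysed by reverse-phase UPLC-PDA; peak area versus initial gave % parent remaining at 3 hours.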

For `CO/C=C(\Oc1cc(-n2ccc(C(C)(F)F)n2)ccc1C)C(=O)OC` [Compound E-68, methyl (Z)-2-[5-[3-(1,1-difluoroethyl)pyrazol-1-yl]-2-methyl-phenoxy]-3-methoxy-prop-2-enoate], the pest or weed control at 200 ppm [1] was ≥ 80%, the inhibition of growth at 20 ppm [2] was ≥ 80% and the pest or weed control at 200 ppm [3] was ≥ 80%. For the same compound, the pest or weed control at 200 ppm [4] was ≥ 80%, the inhibition of growth at 20 ppm [5] was ≥ 80% and the inhibition of growth at 20 ppm [6] was ≥ 80%. The pest or weed control at 200 ppm [7] was ≥ 80%, the pest or weed control at 200 ppm [8] was ≥ 80% and the pest or weed control at 200 ppm [9] was ≥ 80%. For the same compound, the pest or weed control at 200 ppm [10] was ≥ 80%, the inhibition of growth at 20 ppm [11] was ≥ 80% and the inhibition of growth at 20 ppm [12] was ≥ 80%. For the same compound, the inhibition of growth at 20 ppm [13] was ≥ 80%, the inhibition of growth at 20 ppm [14] was ≥ 80% and the “% Parent Remaining @ 3 hrs” value [15] was 40%. It also gave a melting point of 119 to 121 °C.
